According to publication PMC7818428, “Potential Dental Biofilm Inhibitors: Dynamic Combinatorial Chemistry Affords Sugar‐Based Molecules that Target Bacterial Glucosyltransferase” (Chemmedchem, 2020):

Biological target: T1, GTF180-ΔN (GTF180) (Limosilactobacillus reuteri, UniProt Q5SBN3)
T1 construct: N-terminally truncated GTF180-ΔN (catalytic and C-terminal domains), 117 kDa
Experiment: UPLC-MS of dynamic combinatorial library (cleavage to A1H8)
Assay type: biochemical
Conditions: 30 μM protein, mixture of library members with 10 mM aniline, pH 5.2, 10 % DMSO, room temperature

T1 sequence (Q5SBN3 entry or part of it, stated change not applied): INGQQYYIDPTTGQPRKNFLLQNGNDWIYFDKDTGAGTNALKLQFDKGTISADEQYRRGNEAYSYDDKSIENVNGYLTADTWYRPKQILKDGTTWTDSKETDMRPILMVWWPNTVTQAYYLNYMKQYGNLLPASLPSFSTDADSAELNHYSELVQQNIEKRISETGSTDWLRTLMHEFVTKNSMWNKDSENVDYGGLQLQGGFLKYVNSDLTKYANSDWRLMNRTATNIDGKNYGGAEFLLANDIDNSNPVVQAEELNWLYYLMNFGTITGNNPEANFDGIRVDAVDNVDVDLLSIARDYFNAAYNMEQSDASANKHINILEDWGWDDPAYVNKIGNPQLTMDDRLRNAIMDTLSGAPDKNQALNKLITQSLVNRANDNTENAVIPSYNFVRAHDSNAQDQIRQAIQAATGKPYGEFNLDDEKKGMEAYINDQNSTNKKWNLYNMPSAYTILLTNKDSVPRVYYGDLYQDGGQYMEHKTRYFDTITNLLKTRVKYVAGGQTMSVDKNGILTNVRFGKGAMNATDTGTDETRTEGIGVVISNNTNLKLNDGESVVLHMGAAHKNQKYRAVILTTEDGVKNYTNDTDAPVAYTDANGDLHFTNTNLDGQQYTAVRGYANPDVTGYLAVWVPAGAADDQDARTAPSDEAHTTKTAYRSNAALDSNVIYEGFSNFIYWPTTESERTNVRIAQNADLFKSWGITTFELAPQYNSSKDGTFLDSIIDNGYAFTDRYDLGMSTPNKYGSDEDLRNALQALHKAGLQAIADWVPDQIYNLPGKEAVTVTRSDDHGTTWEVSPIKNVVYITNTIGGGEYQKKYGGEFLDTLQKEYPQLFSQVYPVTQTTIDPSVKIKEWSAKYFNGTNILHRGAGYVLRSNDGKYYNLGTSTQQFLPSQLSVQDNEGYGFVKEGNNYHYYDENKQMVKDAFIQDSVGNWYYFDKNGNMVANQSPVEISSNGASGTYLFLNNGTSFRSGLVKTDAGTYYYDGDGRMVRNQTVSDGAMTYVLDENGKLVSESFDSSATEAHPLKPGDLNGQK

**Q.** O=C(CC1CCCC1)N/N=C/c1ccc(O[C@@H]2O[C@H](CO)[C@@H](O[C@H]3O[C@H](CO)[C@@H](O)[C@H](O)[C@H]3O)[C@H](O)[C@H]2O)cc1 [A2H8] was tested. Which “UPLC-MS of dynamic combinatorial library (cleavage to A1H8)” value did it give?
**A.** maltose‐derived acylhydrazones A2H2 and A2H8 with a lipophilic
